From patent US20180251431A1 (VERTEX PHARMACEUTICALS INCORPORATED, priority 2016, published 2018)
Read-outs that look alike come from different tables or passages of the source.

System: HEK293 cells
Assay: HEK293 VLCFA-LPC IC50 determination (13C-labeled C26:0 LPC by UHPLC/MS)
Assay type: cell-based, human
Conditions: Homo sapiens
How it was run: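 Suspension HEK293 cells (final 0.5 million/mL after mixing with equal volume) incubated 48 hours with compound plus 13C-acetate (1.0 mg/mL in added media), shaking at 37° C. Lipids extracted with hexane/isopropanol or methanol, C13:0 LPC standard. UHPLC/MS of 13C-labeled C26:0 LPC (638.500/104.100 m/z); IC50 by four-parameter fit.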

O=C(Nc1ccn(-c2ccnc(F)c2)n1)C1(c2ccccc2F)CC1 [Compound 87, 1-(2-fluorophenyl)-N-[1-(2-fluoro-4-pyridyl)pyrazol-3-yl]cyclopropanecarboxamide] was tested. Which IC50 (HEK293, 48 h, HEK293, half maximal reduction in C26:0 LPC, about 48 hours, read-out: IC50) did it give?
Its IC50 is 8 nM.

What about the IC50 (HEK293, HEK293 cells, average of one or more replicates, read-out: Average HEK293 IC50) of the same compound?
Its IC50 is 13 nM.
